Data reported in patent US11434198B2, “Compounds and methods for the treatment of neurodegenerative diseases” (Resilio Therapeutics, LLC, priority 2016, dated 2022).

Assay: pH stability of prodrugs of DFMO in PBS buffer
Format: physicochemical
Settings: for intact prodrug lost over the next 24 hours: 24 hours following the initial phase; for decrease in the amount of intact, non-degraded prodrug over the first hour of incubation: LC/MS/MS
Method: The stability of prodrugs of DFMO to different pH conditions over time was assayed. Prodrugs were reconstituted in dimethylsulfoxide (DMSO), diluted into phosphate buffered saline (PBS) of different pH values, incubated for different lengths of time at room temperature, and then analyzed by LC/MS/MS for changes in the levels of each prodrug. […] Following this initial phase, the (2)-prodrug was reasonably stable over the next 24 hours so that less than 20% of the intact prodrug was lost at pH 3 and 5, and about 60% of the intact material was lost at pH 8 over a day. […] Similar results were obtained with the other prodrugs tested.

stability of intact, non-degraded prodrug over time at different pH (in words) (PBS of different pH values, room temperature): slowly lost
intact prodrug lost over the next 24 hours (PBS pH 3, room temperature): less than 20%
decrease in the amount of intact, non-degraded prodrug over the first hour of incubation (PBS pH 3, room temperature): about 60%
intact prodrug lost over the next 24 hours (PBS pH 5, room temperature): less than 20%
decrease in the amount of intact, non-degraded prodrug over the first hour of incubation (PBS pH 5, room temperature): 30-35%
intact prodrug lost over the next 24 hours (PBS pH 8, room temperature): about 60%
decrease in the amount of intact, non-degraded prodrug over the first hour of incubation (PBS pH 8, room temperature): 30-35%
Compound: CC(OC(=O)NCCCC(N)(C(=O)O)C(F)F)OC(=O)C(C)C (stereo not shown) [(2)-prodrug, 2-amino-2-(difluoromethyl)-5-[1-(2-methylpropanoyloxy)ethoxycarbonylamino]pentanoic acid]
